Converted amounts (≈) assume the structure as drawn.
How the values were obtained:
B. fragilis CUH-108 = experiment: In vitro activity against anaerobes (MIC), two-fold serial agar dilution, GAM agar; type: cell-based; settings: Bacteroides fragilis, CUH108, Gn, Beta-Lactamase(+), Clindamycin-resistant
Description: In vitro activity against anaerobic bacteria was determined on eight strains of B. fragilis by two-fold serial agar dilution method in GAM agar.

B. fragilis A 22695 = experiment: as above; type: cell-based; settings: Bacteroides fragilis, A22695, Gn, Beta-Lactamase(+)
C. difficile A 21675 = experiment: In vitro activity against anaerobes (MIC); type: cell-based; settings: Clostridioides difficile, A21675, Gp, Clindamycin-resistant
E. coli Juhl [1] = experiment: MIC against the infecting organism (Table 2); settings: Escherichia coli
[2] = system: Penicillin (PC)sensitive S. (5 strains); experiment: MIC, two-fold serial agar dilution, Mueller-Hinton agar (geometric mean, group Gp-Ia); type: cell-based, S. aureus; settings: Staphylococcus aureus
Description: (§1) For a primary evaluation of some representative compounds of this invention, minimum inhibitory concentrations (MIC's) were determined against 32 strains of test organisms by two-fold serial agar dilution method in Mueller-Hinton agar.
Gp-Ia: Penicillin (PC)sensitive S.

[3] = system: CETresistant E. coli(3), and Kl. pneumoniae(2); experiment: MIC, two-fold serial agar dilution, Mueller-Hinton agar (geometric mean, group Gn-Ib); type: cell-based; settings: Escherichia coli, read-out: Geometric Mean of MIC, Gn-Ib
Description: as §1
GnIb: CETresistant E. coli(3), and Kl. pneumoniae(2)

S. aureus Smith [4] = settings: Staphylococcus aureus, in Mus musculus, im, read-out: PD50
B. fragilis A 22693 = experiment: In vitro activity against anaerobes (MIC), two-fold serial agar dilution, GAM agar; type: cell-based; settings: Bacteroides fragilis, A22693, Gn, Beta-Lactamase(-)
B. fragilis A 22021 = experiment: as above; type: cell-based; settings: Bacteroides fragilis, A22021, Gn, Beta-Lactamase(-)
[5] = system: Cephalothin (CET)sensitive E. coli(2), Kl. pneumoniae(1) and Pr. mirabilis(2); experiment: MIC, two-fold serial agar dilution, Mueller-Hinton agar (geometric mean, group Gn-Ia); type: cell-based; settings: 5 strains
Description: as §1
GnIa: Cephalothin (CET)sensitive E. coli(2)*, Kl. pneumoniae(1) and Pr.

E. coli Juhl [6] = settings: Escherichia coli, in Mus musculus, im, read-out: PD50
[7] = system: M. morganii(1), Ent. cloacae(2), and Ser. marcescens(2); experiment: MIC, two-fold serial agar dilution, Mueller-Hinton agar (geometric mean, group Gn-II); type: cell-based; settings: 5 strains
Description: as §1
GnII: M. morganii(1), Ent. cloacae(2), and Ser. marcescens(2)

B. fragilis A 22534 = experiment: In vitro activity against anaerobes (MIC), two-fold serial agar dilution, GAM agar; type: cell-based; settings: Bacteroides fragilis, A22534, Gn, Beta-Lactamase(+)
P. acnes A 21933 = experiment: In vitro activity against anaerobes (MIC); type: cell-based; settings: Cutibacterium acnes, A21933, Gp
C. perfringens A9635 = experiment: microbe, parasite or virus in culture; type: cell-based; settings: Clostridium perfringens
P. aeruginosa 9843A = experiment: MIC against the infecting organism (Table 2); settings: Pseudomonas aeruginosa
B. fragilis A 21916 = experiment: In vitro activity against anaerobes (MIC), two-fold serial agar dilution, GAM agar; type: cell-based; settings: Bacteroides fragilis, A21916, Gn, Beta-Lactamase(-)
PCresistant S. aureus = experiment: MIC, two-fold serial agar dilution, Mueller-Hinton agar (geometric mean, group Gp-Ib); type: cell-based; settings: Staphylococcus aureus, penicillin-resistant S. aureus, 5 strains
Description: as §1
GpIb: PCresistant S. aureus

B. fragilis A 22053 = experiment: In vitro activity against anaerobes (MIC), two-fold serial agar dilution, GAM agar; type: cell-based; settings: Bacteroides fragilis, A22053, Gn, Beta-Lactamase(-)
Ps. aeruginosa (7) = experiment: MIC, two-fold serial agar dilution, Mueller-Hinton agar (geometric mean, group Gn-III); type: cell-based; settings: Pseudomonas aeruginosa, 7 strains
Description: as §1
GnIII: Ps. aeruginosa (7)

B. fragilis A 22533 = experiment: In vitro activity against anaerobes (MIC), two-fold serial agar dilution, GAM agar; type: cell-based; settings: Bacteroides fragilis, A22533, Gn, Beta-Lactamase(+)
K. pneumoniae PCI 602 = settings: Klebsiella pneumoniae, PCI602, 18 h, pH 7.2
P. aeruginosa A20599 = type: cell-based; settings: Pseudomonas aeruginosa, pH 7.2, 32° C. 18 hr, 10^6 cells/ml
E. faecium A24817 = type: cell-based; settings: Enterococcus faecium, pH 7.2, 32° C. 18 hr, 10^6 cells/ml
S. aureus Smith [8] = settings: Staphylococcus aureus, 18 h, pH 7.2
X. maltophilia GN 12873 = settings: Stenotrophomonas maltophilia, GN12873, 18 h, pH 7.2
E. coli 255 = settings: Escherichia coli, 255, 18 h, pH 7.2
C. terrigena IFO 12685 = settings: 18 h, pH 7.2
E. coli Juhl A15119 = settings: Escherichia coli, JUHLA15119, 18 h, pH 7.2
P. aeruginosa KKA 19 = settings: Pseudomonas aeruginosa, KKA19, 18 h, pH 7.2
S. aureus 4-1015 (MRSA) = settings: Staphylococcus aureus, 18 h, pH 7.2
P. vulgaris IPM-13 = type: cell-based; settings: Proteus vulgaris, IPM13, pH 7.2, 32° C. 18 hr, 10^6 cells/ml
S. marcescens IPM-15 = settings: Serratia marcescens, IPM15, 18 h, pH 7.2
S. epidermidis 11-1168 = type: cell-based; settings: Staphylococcus epidermidis, 111168, pH 7.2, 32° C. 18 hr, 10^6 cells/ml
P. mirabilis IFO-2849 = settings: Proteus mirabilis, IFO2849, 18 h, pH 7.2
P. aeruginosa IPM-8 = settings: Pseudomonas aeruginosa, IPM8, 18 h, pH 7.2
P. aeruginosa IPM-9 = settings: Pseudomonas aeruginosa, IPM9, 18 h, pH 7.2
P. rettgeri IPM-14 = settings: Providencia rettgeri, IPM14, 18 h, pH 7.2
M. luteus 1001 = settings: Micrococcus luteus, 1001, 18 h, pH 7.2
M. morgani 1510/9 = settings: 18 h, pH 7.2
P. cepacia No. 651 = settings: Burkholderia cepacia, NO.651, 18 h, pH 7.2
C. freundii GN 7391 = settings: Citrobacter freundii, GN7391, 18 h, pH 7.2
S. aureus IPM-24 (MRSA) = settings: Staphylococcus aureus, 18 h, pH 7.2
P. cepacia A21213 = type: cell-based; settings: Burkholderia cepacia, pH 7.2, 32° C. 18 hr, 10^6 cells/ml
S. marcescens IPM-16 = settings: Serratia marcescens, IPM16, 18 h, pH 7.2
B. subtilis PCI 219 = settings: Bacillus subtilis, PCI219, 18 h, pH 7.2
M. morgani 1510 = settings: 18 h, pH 7.2
S. epidermidis 11-1230 = settings: Staphylococcus epidermidis, 111230, 18 h, pH 7.2
X. maltophilia No. 661 = settings: Stenotrophomonas maltophilia, NO.661, 18 h, pH 7.2
S. aureus 209P = settings: Staphylococcus aureus, 18 h, pH 7.2
E. cloacae IPM-12 = settings: Enterobacter cloacae, IPM12, 18 h, pH 7.2
E. faecalis A9808 = settings: Enterococcus faecalis, A9808, 18 h, pH 7.2

## CO/N=C(\C(=O)NC1C(=O)N2C(C(=O)O)=C(/C=C/COC(=O)c3ccc(O)c(O)c3)CS[C@H]12)c1nsc(N)n1 (stereo partly shown) [Ib, 7-[(Z)-2-(5-Amino-1,2,4-thiadiazol-3-yl)-2-methoxyiminoacetamido]-3-[(E)-3-(3,4-dihydroxybenzoyloxy)-1-propen-1-yl]-3-cephem-4carboxylic acid]
B. fragilis CUH-108
  MIC: > 50 µg/mL
B. fragilis A 22695
  MIC: 25 µg/mL (≈ 43.4 µM)
C. difficile A 21675
  MIC: 25 µg/mL (≈ 43.4 µM)
E. coli Juhl [1]
  MIC: 0.1 µg/mL (≈ 0.173 µM)
[2]
  MIC: 3.4 µg/mL (≈ 5.9 µM)
[3]
  MIC: 0.026 µg/mL (≈ 0.0451 µM)
S. aureus Smith [4]
  ED50: 0.68 mg/kg
B. fragilis A 22693
  MIC: 3.1 µg/mL (≈ 5.38 µM)
B. fragilis A 22021
  MIC: 0.2 µg/mL (≈ 0.347 µM)
[5]
  MIC: 0.022 µg/mL (≈ 0.0382 µM)
E. coli Juhl [6]
  ED50: 0.037 mg/kg
[7]
  MIC: 0.53 µg/mL (≈ 0.919 µM)
B. fragilis A 22534
  MIC: > 50 µg/mL
P. acnes A 21933
  MIC: 0.8 µg/mL (≈ 1.39 µM)
C. perfringens A9635
  MIC: 0.4 µg/mL (≈ 0.694 µM)
P. aeruginosa 9843A
  MIC: 0.4 µg/mL (≈ 0.694 µM)
B. fragilis A 21916
  MIC: 12.5 µg/mL (≈ 21.7 µM)
PCresistant S. aureus
  MIC: 3.1 µg/mL (≈ 5.38 µM)
B. fragilis A 22053
  MIC: 3.1 µg/mL (≈ 5.38 µM)
Ps. aeruginosa (7)
  MIC: 0.49 µg/mL (≈ 0.85 µM)
B. fragilis A 22533
  MIC: > 50 µg/mL

## Nc1nc(/C(=N/O)C(=O)NC2C(=O)N3C(C(=O)O)=C(/C=C/COC(=O)c4ccc(O)c(O)c4)CSC23)cs1 (stereo not shown) [Id, 7-[(Z)-2-(2-Aminothiazol-4-yl)-2-hydroxyiminoacetamido]-3-[(E)-3l-(3,4-dihydroxybenzoyloxy)-1-propen-1-yl]-3-cephem-4-carboxylic acid]
K. pneumoniae PCI 602
  MIC: 0.025 µg/mL (≈ 0.0445 µM)
P. aeruginosa A20599
  MIC: > 100 µg/mL
E. faecium A24817
  MIC: 100 µg/mL (≈ 178 µM)
S. aureus Smith [8]
  MIC: 0.8 µg/mL (≈ 1.42 µM)
X. maltophilia GN 12873
  MIC: > 100 µg/mL
E. coli 255
  MIC: 0.8 µg/mL (≈ 1.42 µM)
C. terrigena IFO 12685
  MIC: 0.8 µg/mL (≈ 1.42 µM)
E. coli Juhl A15119
  MIC: 0.2 µg/mL (≈ 0.356 µM)
P. aeruginosa KKA 19
  MIC: > 100 µg/mL
S. aureus 4-1015 (MRSA)
  MIC: 6.3 µg/mL (≈ 11.2 µM)
P. vulgaris IPM-13
  MIC: > 100 µg/mL
S. marcescens IPM-15
  MIC: > 100 µg/mL
S. epidermidis 11-1168
  MIC: 3.1 µg/mL (≈ 5.52 µM)
P. mirabilis IFO-2849
  MIC: 0.2 µg/mL (≈ 0.356 µM)
P. aeruginosa IPM-8
  MIC: > 100 µg/mL
P. aeruginosa IPM-9
  MIC: > 100 µg/mL
P. rettgeri IPM-14
  MIC: 0.4 µg/mL (≈ 0.712 µM)
M. luteus 1001
  MIC: 0.2 µg/mL (≈ 0.356 µM)
M. morgani 1510/9
  MIC: 0.2 µg/mL (≈ 0.356 µM)
P. cepacia No. 651
  MIC: > 100 µg/mL
C. freundii GN 7391
  MIC: 50 µg/mL (≈ 89 µM)
S. aureus IPM-24 (MRSA)
  MIC: 100 µg/mL (≈ 178 µM)
P. cepacia A21213
  MIC: > 100 µg/mL
S. marcescens IPM-16
  MIC: > 100 µg/mL
B. subtilis PCI 219
  MIC: 0.4 µg/mL (≈ 0.712 µM)
M. morgani 1510
  MIC: 6.3 µg/mL (≈ 11.2 µM)
S. epidermidis 11-1230
  MIC: 6.3 µg/mL (≈ 11.2 µM)
X. maltophilia No. 661
  MIC: > 100 µg/mL
S. aureus 209P
  MIC: 0.8 µg/mL (≈ 1.42 µM)
E. cloacae IPM-12
  MIC: > 100 µg/mL
E. faecalis A9808
  MIC: 12.5 µg/mL (≈ 22.3 µM)
